The data set deals with CCRIS mutagenicity, Ames/micronucleus/aberration tests. Put plainly: CCRIS mutagenicity studies.
Setting [1] is: Test System: AMES SALMONELLA TYPHIMURIUM, Strain/Indicator: TA98, Metabolic Activation: NONE, Method: STANDARD PLATE.
[2] abbreviates: Test System: AMES SALMONELLA TYPHIMURIUM, Strain/Indicator: TA100, Metabolic Activation: NONE, Method: STANDARD PLATE.
[3] abbreviates: Test System: AMES SALMONELLA TYPHIMURIUM, Strain/Indicator: TA1535, Metabolic Activation: NONE, Method: STANDARD PLATE.
Setting [4] is: Test System: AMES SALMONELLA TYPHIMURIUM, Strain/Indicator: TA1537, Metabolic Activation: NONE, Method: STANDARD PLATE.

Each structure is given as a SMILES string. Calls of active or inactive are those of the source. The rule behind the calls is not given here.

Turning to `C=CC[Si](C)(C)C`, the mutagenic call reads like this: (Test System: AMES SALMONELLA TYPHIMURIUM, Strain/Indicator: TA98, Metabolic Activation: HAMSTER, LIVER, S-9, AROCLOR 1254 (10%), Method: PREINCUBATION) “inactive; negative”; (Test System: AMES SALMONELLA TYPHIMURIUM, Strain/Indicator: TA98, Metabolic Activation: NONE, Method: PREINCUBATION) “inactive; negative”; (Test System: AMES SALMONELLA TYPHIMURIUM, Strain/Indicator: TA98, Metabolic Activation: RAT, LIVER, S-9, AROCLOR 1254 (10%), Method: PREINCUBATION) “inactive; negative”; (Test System: AMES SALMONELLA TYPHIMURIUM, Strain/Indicator: TA100, Metabolic Activation: HAMSTER, LIVER, S-9, AROCLOR 1254 (10%), Method: PREINCUBATION) “inactive; negative”; (Test System: AMES SALMONELLA TYPHIMURIUM, Strain/Indicator: TA100, Metabolic Activation: NONE, Method: PREINCUBATION) “inactive; negative”; (Test System: AMES SALMONELLA TYPHIMURIUM, Strain/Indicator: TA100, Metabolic Activation: RAT, LIVER, S-9, AROCLOR 1254 (10%), Method: PREINCUBATION) “inactive; negative”. In addition, the mutagenic call (Test System: AMES SALMONELLA TYPHIMURIUM, Strain/Indicator: TA1535, Metabolic Activation: HAMSTER, LIVER, S-9, AROCLOR 1254 (10%), Method: PREINCUBATION) is “inactive; negative”; the mutagenic call (Test System: AMES SALMONELLA TYPHIMURIUM, Strain/Indicator: TA1535, Metabolic Activation: NONE, Method: PREINCUBATION) was “inactive; negative”; the mutagenic call (Test System: AMES SALMONELLA TYPHIMURIUM, Strain/Indicator: TA1535, Metabolic Activation: RAT, LIVER, S-9, AROCLOR 1254 (10%), Method: PREINCUBATION) was “inactive; negative”; the mutagenic call (Test System: AMES SALMONELLA TYPHIMURIUM, Strain/Indicator: TA1537, Metabolic Activation: HAMSTER, LIVER, S-9, AROCLOR 1254 (10%), Method: PREINCUBATION) is “inactive; negative”; the mutagenic call (Test System: AMES SALMONELLA TYPHIMURIUM, Strain/Indicator: TA1537, Metabolic Activation: NONE, Method: PREINCUBATION) is “inactive; negative”; the mutagenic call (Test System: AMES SALMONELLA TYPHIMURIUM, Strain/Indicator: TA1537, Metabolic Activation: RAT, LIVER, S-9, AROCLOR 1254 (10%), Method: PREINCUBATION) is “inactive; negative”. The mutagenic call reads like this: (Test System: AMES SALMONELLA TYPHIMURIUM, Strain/Indicator: TA1538, Metabolic Activation: HAMSTER, LIVER, S-9, AROCLOR 1254 (10%), Method: PREINCUBATION) “inactive; negative”; (Test System: AMES SALMONELLA TYPHIMURIUM, Strain/Indicator: TA1538, Metabolic Activation: NONE, Method: PREINCUBATION) “inactive; negative”; (Test System: AMES SALMONELLA TYPHIMURIUM, Strain/Indicator: TA1538, Metabolic Activation: RAT, LIVER, S-9, AROCLOR 1254 (10%), Method: PREINCUBATION) “inactive; negative”; (Test System: MOUSE LYMPHOMA, Strain/Indicator: L5178Y (TK+/TK-), Metabolic Activation: NONE, Method: SUSPENSION/PLATE) “inactive; negative. reevaluation of results: negative”; (Test System: MOUSE LYMPHOMA, Strain/Indicator: L5178Y (TK+/TK-), Metabolic Activation: RAT, LIVER, S-9, AROCLOR 1254, Method: SUSPENSION/PLATE) “inactive; negative. reevaluation of results: negative”.

Regarding `O=[N+]([O-])C1=Cc2cccc3c2c1cc1ccc2ccccc2c13`, the mutagenic call runs as follows: under setting [1], “active; positive”; (Test System: AMES SALMONELLA TYPHIMURIUM, Strain/Indicator: TA98, Metabolic Activation: RAT, LIVER, S-9, AROCLOR 1254, Method: STANDARD PLATE) “inactive; negative”; under setting [2], “inactive; negative”; (Test System: AMES SALMONELLA TYPHIMURIUM, Strain/Indicator: TA100, Metabolic Activation: RAT, LIVER, S-9, AROCLOR 1254, Method: STANDARD PLATE) “active; positive”; under setting [3], “inactive; negative”; (Test System: AMES SALMONELLA TYPHIMURIUM, Strain/Indicator: TA1535, Metabolic Activation: RAT, LIVER, S-9, AROCLOR 1254, Method: STANDARD PLATE) “inactive; negative”. Besides, the mutagenic call is “active; positive” under setting [4]; “active; positive” (Test System: AMES SALMONELLA TYPHIMURIUM, Strain/Indicator: TA1537, Metabolic Activation: RAT, LIVER, S-9, AROCLOR 1254, Method: STANDARD PLATE); “active; positive” (Test System: AMES SALMONELLA TYPHIMURIUM, Strain/Indicator: TA1538, Metabolic Activation: NONE, Method: STANDARD PLATE); “active; positive” (Test System: AMES SALMONELLA TYPHIMURIUM, Strain/Indicator: TA1538, Metabolic Activation: RAT, LIVER, S-9, AROCLOR 1254, Method: STANDARD PLATE).

In the case of `CC(=O)Nc1snc2ccc(Cl)cc12`, the mutagenic call was “inactive; negative” under setting [1]; “inactive; negative” (Test System: AMES SALMONELLA TYPHIMURIUM, Strain/Indicator: TA98, Metabolic Activation: S-9, Method: STANDARD PLATE); “inactive; negative” under setting [2]; “active; positive” (Test System: AMES SALMONELLA TYPHIMURIUM, Strain/Indicator: TA100, Metabolic Activation: S-9, Method: STANDARD PLATE); “inactive; negative” under setting [3]; “inactive; negative” (Test System: AMES SALMONELLA TYPHIMURIUM, Strain/Indicator: TA1535, Metabolic Activation: S-9, Method: STANDARD PLATE). The mutagenic call reads like this: under setting [4], “inactive; negative”; (Test System: AMES SALMONELLA TYPHIMURIUM, Strain/Indicator: TA1537, Metabolic Activation: S-9, Method: STANDARD PLATE) “active; positive”.

For the origin of these results see PubChem BioAssay AID1259407 (Chemical Carcinogenesis Research Information System (CCRIS), 2018).
